One block for each compound: values may come before it.
Columns and labels:
KPC PDAC cells [1] = test: KPC transplanted (allograft) model, KRN2 and MRTX1133; type: in vivo
Protocol: (§1) For allograft or xenograft tumor models, human or mouse PDAC cells were transplanted orthotopically or subcutaneously into recipient C57BL/6 or nude mice at a concentration of 500,000 cells per injection, as specified in the figures. The cells were resuspended in Opti-MEM and combined with growth factor-reduced Matrigel (Corning) at a 1:1 ratio.
(§2) For bioluminescence imaging, each mouse received a 100 L injection of D-Luciferin (15 mg/mL, i.p., Perkin Elmer). After a 10-minute interval, mice were imaged using the IVIS Spectrum Imaging System, and images were acquired and analyzed using Living Image 4.3 software.

KPC PDAC cells [2] = test: Orthotopically transplanted KPC PDAC model with pancreatitis induction; type: in vivo, mouse
Protocol: as §1, §2

[3] = test system: KPC [1860], Mia PaCa-2, and Panc 04.03 PDAC cells; test: Cancer spheroid formation under KRASi; type: cell-based, mouse and human
Protocol: (§3) Human cell lines MIA PaCa-2 and Panc 04.03 were purchased from the American Type Culture Collection (ATCC) and cultured in DMEM supplemented with 10% FBS and RPMI supplemented with 15% FBS and 20 Units/ml human recombinant insulin, respectively. Mouse PDAC cells were isolated from spontaneous tumors developed in iKPC or KPC mice. KPC cell lines were sustained in RPMI (Gibco) with 10% FBS (Gibco), while iKPC cell lines were cultured in RPMI with 10% Tet-approved FBS (Gibco) and doxycycline (VWR, […]). Escaper tumor cell lines were maintained in RPMI with 10% Tet-approved FBS (Gibco). For cancer spheroid culture, cells were mixed with 50 L growth factor-reduced Matrigel (Corning) and plated in 24-well low-attachment cell culture plates (Nunc). Medium was added on top of the solidified Matrigel. We monitored both spheroid size and number for spheroid growth assays. For counting spheroid numbers, we used a cut-off of 100 m in diameter or specified, depending on the time and cell type. For measuring spheroid size, ImageJ was used. Monthly mycoplasma detection (Lonza) was performed to ensure the absence of contamination.

AsPC-1 = test: Cancer spheroid formation under KRASi, SMAD4-deficient cells; type: cell-based, human; settings: for Response of spheroid formation to TGFβ1 or TGFβRi: SMAD4-deficient, under G12Di MRTX1133, TGFβ 0.5 ng/ml, SB505124 1 μM
MIA PaCa-2 = MIA PaCa-2 orthotopic xenograft model; type: in vivo
Source text: as §1

[4] = test system: KRAS*-independent escaper tumor cells E725; test: Escaper tumor growth, E725 cells subcutaneous in nude mice; type: in vivo, mouse; settings: KRN2 3 mg/kg QD vs vehicle; day 28
Source text: as §1

iKPC spheroids [5] = test: RNA-seq / GSEA in TGFβ-treated, KRAS*-depleted iKPC spheroids; type: cell-based, mouse; settings: inhibition of NFAT5 by KRN2
Protocol: (§4) RNA extraction from 2-D or 3-D cultured cell samples was conducted using the RNA Extraction Kit from Qiagen. Matrigel-based 3-D cells were isolated using Cell Recovery Solution from Corning. RNA concentration was assessed using NanoDrop 2000. The RNA samples were either sent for RNA-seq analysis to the Genomic Center at Rutgers or Genewiz (Azenta), or reverse transcribed for qRT-PCR analysis. The preparation of cDNA utilized 5× All-In-One RT MasterMix from Applied Biological Materials, and the PCR reactions were prepared with SYBR Green PCR Master Mix from Applied Biosystems or Bio-Rad. qRT-PCR was executed on the CFX Opus 96 (Bio-Rad), with statistical analysis conducted using GraphPad Prism. For mRNA sequencing, the parameters were NGS-75 nt Paired End, utilizing the Illumina Next Generation Sequencing instrument.
GSEA was performed using GSEA software (4.3.2).

NFAT5 = test: Western blot of NFAT5 expression under KRN2; type: cell-based; settings: PDAC cells, dose-dependent western blot
Protocol: (§5) Antibody information can be found in Table 2. Western blot analysis, IP, co-IP, and IHC staining were conducted following standard protocols. Human TMA slides were purchased from Biomax. Cell fractionation and Masson's Trichrome Staining were carried out using commercial kits, adhering to manufacturers' protocols. MS analysis of proteins pulled down by endogenous SMAD2, SMAD3, SMAD4, NFAT5, and IgG was performed by the Proteomics Core Facility at Rutgers New Jersey Medical School. Specifically, IP samples were subjected to SDS-PAGE separation. Each sample's gel lane was excised for in-gel trypsin digestion, and the resulting peptides were analyzed using LC-MS/MS on an Orbitrap Fusion Lumos Tribrid mass spectrometer coupled with the Ultimate 3000 nano-LC system (Thermo Scientific). MS/MS spectra were searched against the UniProt mouse database (55,336 sequences, downloaded 8/30/2021) using the Sequest search engine through the Proteome Discoverer platform (version 2.4) with a false discovery rate less than 1% for both proteins and peptides. Protein abundance ratios were determined using the Label-Free Quantitation (LFQ) method.

iKPC PDAC cells [6] = test: Cancer spheroid formation, TGFβ-driven KRAS* bypass; type: cell-based, mouse
Protocol: as §3

[7] = test system: KRAS*-independent escaper tumor cell lines from iKPC mice; test: KRAS*-independent escaper spheroid growth; type: cell-based, mouse; settings: SB505124 3 μM; hybrid or QM-like phenotype
Protocol: as §3

iKPC spheroids [8] = test: Western blot of S100A4, NFAT5 and EMT TFs in iKPC cells/spheroids; type: cell-based, mouse; settings: TGFβ
Protocol: as §5

S100a4 promoter = test: Luciferase reporter assay under the S100a4 promoter; type: cell-based, mouse; settings: KRAS*-depleted iKPC PDAC cells
Protocol: Mouse S100a4 promoter was cloned into pGL4.12[iluc2CP] vector (Promega). Renilla luciferase vector (Promega) was used as the internal control. pGL4.12 vector and Renilla luciferase vector were co-transfected into iKPC PDAC cells using Lipofectamine 2000 (Invitrogen). After 24 hours, the medium was replaced, and cells were subjected to various treatments for an additional 24 hours. Subsequently, cells were collected for luciferase reporter assay using the Dual-Luciferase Reporter Assay Kit (Promega) according to the manufacturer's instructions. The firefly luciferase signal was normalized to Renilla luciferase prior to comparison among different treatment groups.

iKPC PDAC cells [9] = test: Gene expression changes in iKPC cells post TGFβ treatment; type: cell-based, mouse
Protocol: as §4

iKPC mice = test: Pancreatitis-induced spontaneous tumor relapse in iKPC mice; type: in vivo, mouse; settings: CAE 100 μg/kg after dox withdrawal (KRAS* off); less than or around a year after treatment; control mice remained tumor-free
Protocol: The iKPC and KPC PDAC mouse models were established and described previously^7,19. They were bred in pure C57BL/6 background. Doxycycline (dox) water (2 mg/mL, ad libitum) was administrated at 4-6 weeks of mouse age to activate transgenic KRAS^G12D expression in iKPC mice. The C57BL/6 mice and nude mice of both sexes were purchased from the Jackson Laboratory and employed to ensure matching sexes of the cell lines.
For the induction of spontaneous tumor relapse in iKPC mice, the withdrawal of dox water was performed to cease KRAS* expression when the tumor diameter reached approximately 1 cm.

Compound: COc1ccc2c(Cc3ccccc3F)c3[n+](cc2c1OC)CCc1cc2c(cc1-3)OCO2.[Cl-] [KRN2]
Mouse allograft tumor growth (KPC PDAC cells [1]; KRN2 3 mg/kg QD in combination with MRTX1133 10 mg/kg QD): inhibition of mouse allograft tumor growth in combination with KRASi
Mouse survival (KPC PDAC cells [1]; KRN2 monotherapy 3 mg/kg QD, immune-competent mice): prolonged mouse survival
Tumor differentiation (H&E) (KPC PDAC cells [1]; KRN2 vs vehicle control): induced tumor differentiation
Systemic toxicity (mouse body weight) (KPC PDAC cells [1]; allograft model, during treatment): minimal systemic toxicities
Chronic pancreatitis-induced KRASi resistance (KPC PDAC cells [2]; MRTX1133 10 mg/kg BID + CAE 100 μg/kg + KRN2 3 mg/kg QD, KPC 1860, day 21): blockage of chronic pancreatitis-induced KRASi resistance
KRASi persistent cancer spheroid formation ([3]; KRN2 1 μM + MRTX1133 0.03 μM (KPC), KRN2 0.3 μM + ARS-1620 5 μM (MIA PaCa-2)): attenuation of KRASi persistent cancer spheroid formation
KRASi persistent cancer spheroid formation, SMAD4-deficient cells (AsPC-1; KRN2 0.3 μM + MRTX1133 0.3 μM): excluding SMAD4-deficient cancer spheroid formation
Human xenograft tumor growth (MIA PaCa-2; KRN2 3 mg/kg QD with G12Ci MRTX849 100 mg/kg QD, day 28): reduction of human xenograft tumor growth cooperatively with KRASi
Systemic toxicity (mouse body weight) (MIA PaCa-2; xenograft model, during treatment): minimal systemic toxicities
Escaper tumor growth in vivo [4]: restriction of escaper tumor growth in vivo
Gene sets upregulated (GSEA) (iKPC spheroids [5]): upregulating genes associated with fatty acid metabolism and mTORC1 signaling
Gene signatures suppressed (GSEA) (iKPC spheroids [5]): suppressed EMT and NFxB gene signatures
Concentration at which Nfat5 expression is suppressed (NFAT5): higher than 0.3 μM
TGFβ-driven KRAS* bypass (spheroid formation) (iKPC PDAC cells [6]; KRN2 1 μM, TGFβ 0.5 ng/ml, three iKPC cell lines): impairment of TGFβ-driven KRAS* bypass

Compound: C#Cc1c(F)ccc2cc(O)cc(-c3ncc4c(N5CC6CCC(C5)N6)nc(OC[C@@]56CCCN5C[C@H](F)C6)nc4c3F)c12 [MRTX1133]
Tumor growth under G12Di with pancreatitis induction (KPC PDAC cells [2]; MRTX1133 10 mg/kg BID + CAE 100 μg/kg): leads to resistance
Tumor growth, G12Di vs vehicle (KPC PDAC cells [2]; MRTX1133 10 mg/kg, BID): significantly reduces tumor growth

Compound: Cc1cccc(-c2[nH]c(C(C)(C)C)nc2-c2ccc3c(c2)OCO3)n1 [SB505124]
Cancer spheroid formation, TGFβRi combined with KRASi ([3]; SB505124 3 μM with MRTX1133 (KPC, Panc 04.03) or ARS-1620 (MIA PaCa-2)): eradication of cancer spheroids
Response of spheroid formation to TGFβ1 or TGFβRi (AsPC-1): did not exhibit a response
Sensitivity of escaper spheroids to TGFβRi [7]: hypersensitivity

S100a4 promoter luciferase activity under TGFβ (S100a4 promoter): activated S100a expression
Compound: TGFβ1: recombinant human and mouse TGFβ1 (Peprotech)
NFAT5 protein level (iKPC spheroids [8]): upregulates NFAT5
S100A4 protein level (iKPC spheroids [8]; cancer spheroids): upregulation of S100A4
Formation of cancer spheroids resistant to KRASi ([3]; TGFβ 0.5 ng/ml with MRTX1133 or ARS-1620, cells with intact TGFβ pathway): actively promoted the formation of cancer spheroids resistant to KRASi
Response of spheroid formation to TGFβ1 or TGFβRi (AsPC-1): did not exhibit a response
Ccl2 expression elevation (iKPC PDAC cells [9]; TGFβ treatment, KRAS*-depleted iKPC PDAC cells): more than 700 fold
S100a4 expression (iKPC PDAC cells [9]; TGFβ, KRAS*-depleted iKPC spheroids): upregulated
KRAS* bypass in spheroid assays (iKPC PDAC cells [6]; TGFβ1 treatment, KRAS* off): efficiently promoted several iKPC PDAC cell lines to bypass KRAS*
KRAS* bypass in spheroid assays, iKPC cell lines 251, 276 (iKPC PDAC cells [6]; TGFβ1 treatment, cell lines with higher Cdkn2a and Cdkn2b expression): unable to bypass KRAS*

Compound: caerulein
Tumor growth, CAE vs vehicle control (KPC PDAC cells [2]; CAE 100 μg/kg, C57BL/6 mice, BLI, tumor weight, tumor volume): promotes KPC PDAC tumor growth
Tumor morphology (H&E) (KPC PDAC cells [2]; CAE;G12Di-treated tumors relative to vehicle;G12Di controls): lost the ductal-like phenotype and were more undifferentiated
Tumor progression, CAE;G12Di vs vehicle;G12Di (KPC PDAC cells [2]; independent study, MRTX1133 10 mg/kg BID, CAE 100 μg/kg): significantly faster tumor progression
SMAD3 phosphorylation and EMT transcription factors in collected tumors (western blot) (KPC PDAC cells [2]; tumors under MRTX1133): induced SMAD3 phosphorylation and the upregulation of EMT transcription factors (TFs) such as SNAI2, ZEB1, and ZEB2
CAE-treated mice that developed escaper tumors (iKPC mice): at least 36%

Compound: recombinant S100A4 protein: recombinant mouse S100A4 (R&D) added to the culture media
Rescue of TGFβ-induced, KRAS*-independent cancer spheroid growth (iKPC PDAC cells [6]; added to culture media after NFAT5 inhibition (KRN2 1 μM) or knockdown of Nfat5 or S100a4): rescued TGFβ-induced, KRAS*-independent cancer spheroid growth
